Measurements from patent publication US20060216699A1, “Peptides for the detection of HIV-1 group O” (priority 1998, published 2006).

How the values were obtained:
[1] = test system: anti-HIV-1 group O antibodies present in human serum; assay: Antibody capture format: peptide on solid phase, bound antibody detected with peptide-HRP conjugate; type: binding; settings: same peptide as Ag and as HRP conjugate (1:100)
Experimental: In peptide 147-5, the N-terminal glycine was added to function as a spacer group, while the arginine in position 2 was added to enhance the solubility of the peptide in aqueous buffers. Both of these peptides were evaluated for their ability to be recognized by HIV-1 group O serum samples in an antibody capture format. In general, in such an assay, a peptide is bound to a solid phase and bivalent antibody presents in a sample binds to the peptide linked thereto. Bound antibody is subsequently detected using a conjugate made of the peptide in question coupled to horseradish peroxidase. The peptide-HRP conjugate binds to antibody which in turn is bound to the solid phase linked peptide. Methods suitable for preparing such conjugates may be found readily in the scientific literature and are well known to those versed in the art.
Microwell plates were pre-coated with either peptide 147-4 or 147-5. A dilution of a serum sample was then incubated for 1 hour at 37° C., after which the plate was washed extensively. A 1:100 dilution of either peptide 147-4 or 147-5 conjugated to HRP was then added and allowed to incubate for an additional hour at 37° C. Following this incubation, the plates were again thoroughly washed. The presence of bound conjugate was detected by addition of substrate for HRP (O-phenylenediamine) and H2O2.
The peptides were evaluated for their ability to be recognized by anti-HIV-1 group O antibodies present in human serum from infected individuals. All group O samples were confirmed to be positive for HIV-1 group O by reverse transcriptase-polymerase chain reaction (RT-PCR) amplification of viral gp41 sequences using O-specific primers. The identity of the PCR product was further confirmed by DNA sequencing.

[2] = test system: antibodies to HIV-1 group O; assay: Chemiluminescent ELISA: serially diluted peptide on streptavidin-coated wells, serum ODS007b 1:60, anti-human IgG:HRP, luminol; type: binding; settings: serum ODS007b 1:60
Experimental: To compare the performance of peptide 147 to another genuine group O sequence, the peptide corresponding to the ANT70 sequence was synthesized (peptide 80). Peptides 147 and 80 were dissolved at the same concentration, serially diluted, and bound to streptavidin-coated wells. A 1:60 dilution of serum sample ODS007b (see Table 3) was added to all wells and incubated. After washing, an anti-human IgG:HRP conjugate was added, incubated, and the wells again thoroughly washed. In this case, a chemiluminescent substrate was used, consisting of luminol and a peracid salt. The emitted light was quantified using a luminometer. The results are tabulated in Table 4 and shown graphically in FIG. 2.

type B sample = assay: ELISA with recombinant antigen coated at 0.5 μg/ml, type B sample; type: binding, human
group O antibody = assay: ELISA with recombinant antigen coated at 0.5 μg/ml, group O sera, HRP-labeled mouse anti-human IgG; type: binding
Experimental: Performance of group M/group O “mosaic” constructs for group O antibody detection. The protein expressed as described was coated at a concentration of 0.5 μg/ml into the wells of microtiter plates for evaluation. Following coating of the protein, any remaining binding sites on the plastic were block with bovine serum albumin. Dilutions of group O sera were then tested for their ability to recognize the recombinant antigen. Bound antibodies were detected by incubation with HRP-labeled mouse anti-human IgG conjugate, and the bound conjugate was subsequently detected by addition of OPD and H2O2.

EQQRLNSWGCKGRIICYTSARWH (HIV Consensus) [peptide 147-4, variant of peptide 147]
Optical Density (OD)492 ([1]; negative control): 0.010 OD | Optical Density (OD)492 ([1]; sample ODS001 (1:200)): >2.500 OD | Optical Density (OD)492 ([1]; sample ODS002 (1:175)): 0.785 OD | Optical Density (OD)492 ([1]; sample ODS006 (1:100)): 0.133 OD | Optical Density (OD)492 ([1]; sample ODS007 (1:1,500)): 0.241 OD

NQQLLSLWGCKGKLVCYTSVKWN (Human immunodeficiency virus type 1) [peptide 80, reference compound]
luminescent units ([2]; peptide 0.020 ug/ml): 0.387 luminescent units | luminescent units ([2]; peptide 0.039 ug/ml): 0.376 luminescent units | luminescent units ([2]; peptide 0.078 ug/ml): 0.621 luminescent units | luminescent units ([2]; peptide 0.156 ug/ml): 1.288 luminescent units | luminescent units ([2]; peptide 0.313 ug/ml): 2.294 luminescent units | luminescent units ([2]; peptide 0.625 ug/ml): 2.854 luminescent units | luminescent units ([2]; peptide 1.250 ug/ml): 2.908 luminescent units | luminescent units ([2]; peptide 2.500 ug/ml): 1.821 luminescent units

GRETLMQDQQRLNSWGCKGRIICYTSARWH (HIV Consensus) [peptide 147-5, longer variant of peptide 147 with N-terminal glycine spacer and arginine to enhance solubility]
Optical Density (OD)492 ([1]; negative control): 0.022 OD | Optical Density (OD)492 ([1]; sample ODS001 (1:200)): >2.500 OD | Optical Density (OD)492 ([1]; sample ODS002 (1:175)): 1.343 OD | Optical Density (OD)492 ([1]; sample ODS006 (1:100)): 0.266 OD | Optical Density (OD)492 ([1]; sample ODS007 (1:1,500)): 0.316 OD

B1: DHFR-hES-MH: truncated dihydrofolate reductase fusion, mosaic group M/group O gp41 recombinant antigen with myc sequence and his6 tail (protein)
chain: MRGSGIMVRPLNSIVAVSQNMGIGKNGDLPWPPLRNEFKYFQRMTTTSSVEGKQNLVIMGRKTWFSIPEKNRPLKDRINIVLSRELKEPPRGAHFLAKSLDDALRLIEQPELASKVDMVWIVGGSSVYQEAMNQPGHLRLFVTRIMQEFESDTFFPEIDLGKYKLLPEYPGVLSEVQEEKGIKYKFEVYEKKGSRSARLLLSGIVQQQNNLLRAIEAQQHMLQLTAWGIKQLRARLQALETLMQNQQRLNSWGCKGRIICYTSARWHASWSNKSLEDIWDNMTWMQWDQQVNNVSSIIYDKILEAQDQQEENVRELLELDKWASLWNWFDITNWLWYIKIFIMIVGPEQKLISEEDLNSAVDHHHHHH
modifications: HIV Consensus
OD492 (type B sample): 0.685 OD | OD492 (group O antibody; sample ODS001 (dilution)): 1.179 OD | OD492 (group O antibody; sample ODS002 (dilution)): 1.323 OD | OD492 (group O antibody; sample neg. control 1): −0.061 OD
